Like-named read-outs stand apart in the source and are kept apart here. One block for each molecule: values may come before it. Where a SMILES comes first, the peptide text is derived from it. Where no end group is shown, it is not given here. [ ]: non-standard residue; d: D form. pY = N[C@@H](Cc1ccc(OP(=O)(O)O)cc1)C(=O)O
Experiments:
[1] = Plasma pharmacokinetics after a single oral dose in rats; format: in vivo, Sprague-Dawley rats
[2] = Transport of Cblin pentapeptides across Caco-2 cell monolayers (apparent permeability); format: in vitro ADME; conditions: human; Caco-2 (C2BBe1) monolayers, apical to basolateral, apical HBSS pH 6.0 / basolateral HBSS pH 7.4, 1 mM peptide, 0.5% DMSO, 60 min, 37 °C, TEER >300 Ω·cm2, LC–TOF/MS, means ± SEM (n = 4–6)
Method: (§1) Cell culture and transport experiment were performed as described[24],[45]. Caco-2 cells were cultured using BD BioCoat Intestinal Epithelium Differentiation Environment kits (BD Bioscience, Franklin Lakes, NJ, USA). Caco-2 cells grown in 0.9 cm^2 Falcon cell culture inserts (polyethylene terephthalate membranes; pore size, 1.0 μm; Becton Dickinson and Co.) with a type I collagen-coated membrane (Cellmatrix type IA Collagen Gel Culturing Kit; Nitta Gelatin Inc., Osaka, Japan) were gently rinsed twice with Hanks balanced salt solution (HBSS; 137 mM NaCl, 5 mM KCl, 5.5 mM D-glucose, 4 mM NaHCO3, 0.75 mM NaHPO4·12H2O, 0.4 mM KH2PO4, 0.8 mM MgSO4·7H2O, and 1.26 mM CaCl2·2H2O, pH 6.0 adjusted with 10 mM 2-(N-morpholino)-ethanesulfonic acid). A portion (1.5 mL) of HBSS buffer (pH 6.0) was added to the apical side, and HBSS buffer (pH 7.4 adjusted with 10 mM N-2-hydroxyethylpiperazine-N′-2-ethanesulfonic acid) was added to the basolateral side. After equilibration for 15 min at 37 °C, the apical buffer was replaced with fresh HBSS (pH 6.0) containing 1 mM peptide and 0.5% DMSO. Portions (60 μL) of solutions were drawn from the apical or basolateral sides at 15, 30, 45, and 60 min to determine amounts of transported peptides. Monolayer integrity was evaluated by measuring TEER using a Millicell® ERS-2 Voltohmmeter (Merck KGaA, Darmstadt, Germany), and monolayers with a TEER of >300 Ω · cm^2 were included in the experiments. The apparent permeability coefficient (Papp, cm/s) was calculated as1 Pappcm/s=V/AC0×dC/dt where dC/dt is the change in concentration on the basolateral side over time (mM/s), V is the volume of solution in the basolateral compartment (1.5 mL), A is the surface area of the membrane (0.9 cm^2), and C0 is the initial concentration on the apical side (mM).
(§2) We investigated the involvement of PEPT1 in peptide transport by competition studies using 10 mM Gly-Sar, a PEPT1 substrate. We also investigated peptide transport over paracellular tight junctions by incubating monolayers with the tight junction opener, cytochalasin D (0.5 μg/mL) for 30 min[47] before evaluating transport.
(§3) Oligopeptides were separated at 40 °C using a linear gradient of 0.1% formic acid (FA) in MS grade water (solvent A) and 0.1% FA in acetonitrile (ACN) (solvent B) for 20 min at a flow rate of 0.2 mL/min, and an Agilent 1200 series HPLC system (Agilent Technologies Inc., Santa Clara, CA, USA) equipped with a Cosmosil 5C18-MS-II column (Φ 2.0 mm × 150 mm, Nacalai Tesque Inc., Kyoto, Japan). The MS conditions comprised: drying gas, N2; flow rate, 8.0 L/min; drying gas temperature, 200 °C; drying gas pressure, 1.6 bar; HV capillary voltage, −4500 V; capillary exit, 70.0 V; skimmer 1, 50.0 V; hexapole 1, 23.0 V; hexapole RF, 100.0 Vpp; skimmer 2, 23.0 V; lens 1 transfer, 52.0 μs, and mass range m/z 100–1000. A calibration solution of 10 mM sodium formate in 50% ACN was injected at the beginning of each run. Data were analyzed using Bruker Data Analysis version 3.2 software (Bruker, Billerica, MA, USA). Calibration curves were prepared using 0.1–10 μM standards.

[3] = test system: Caco-2 cell monolayers; assay: as above; format: in vitro ADME; conditions: LC–TOF/MS, n = 4–6; for Effect of Gly-Sar (PEPT1 substrate) on Papp: Caco-2, 1 mM peptide with 10 mM Gly-Sar, 60 min; for Papp in monolayers incubated with cytochalasin D vs untreated membranes: Caco-2, 1 mM peptide, pre-incubation with cytochalasin D 0.5 μg/mL for 30 min, transport 60 min
Method: as §1, §2, §3

[4] = test system: Caco-2 cells; assay: Peptidase degradation and dephosphorylation during Caco-2 transport (fragment screening by LC-TOF/MS); format: in vitro ADME; conditions: for Resistance to peptidase degradation in Caco-2 cells: 1 mM peptide, 60 min, fragments screened by m/z, no other peptide fragments found (data not shown)
Method: as §1, with “After equilibration for 15 min at 37 °C, the apical buffer was replaced with fresh HBSS (pH 6.0) containing 1 mM peptide and 0.5% DMSO. Portions (60 μL) of solutions were drawn from the apical or basolateral sides at 15, 30, 45, and 60 min to determine amounts of transported peptides.” left out
Oligopeptides were separated at 40 °C using a linear gradient of 0.1% formic acid (FA) in MS grade water (solvent A) and 0.1% FA in acetonitrile (ACN) (solvent B) for 20 min at a flow rate of 0.2 mL/min, and an Agilent 1200 series HPLC system (Agilent Technologies Inc., Santa Clara, CA, USA) equipped with a Cosmosil 5C18-MS-II column (Φ 2.0 mm × 150 mm, Nacalai Tesque Inc., Kyoto, Japan). […] Data were analyzed using Bruker Data Analysis version 3.2 software (Bruker, Billerica, MA, USA). […]

[5] = test system: Caco-2 cell monolayers; conditions: cited from earlier work
Method: Basolateral solutions were sampled every 15 min for 60 min and analyzed by LC–TOF/MS. […] Therefo ...

[6] = LC-TOF/MS detection of CbR-derived peptides in serum and skeletal muscle of mice fed CbR; format: in vivo, Jcl:ICR mice; conditions: serum of mice fed CbR diet for 14 days
Method: as §3
31 Supplementary Figure 2. Analysis of serum collected from mice fed with Non-Tg or CbR using
33 Mice were handled as described in Methods. Briefly, 6-week-old male Jcl:ICR mice (Japan SLC
34 Inc., Shizuoka, Japan) were housed with access to a standard diet and water ad libitum. […]
42 specific for CbR group. ND, not detected. […]
60 analyzed by LC-TOF/MS under conditions described in Methods. […]
61 those of possible metabolites. […] ND, not detected.

[7] = test system: CBLB; design: method as in 2 sources, ref 9 = [9]; PMID 26874193; doi:10.1016/j.abb.2016.02.014; 9. Ohno A Structural analysis of the TKB domain of ubiquitin ligase Cbl-b complexed with its small inhibitory peptide, Cblin Arch. Biochem. Biophys. 2016 594 1 7 10.1016/j.abb.2016.02.014 26874193 ||| ref 19 = [19]; PMID 23762056; doi:10.1155/2013/907565; 19. Abe T Soy glycinin contains a functional inhibitory sequence against muscle-atrophy-associated ubiquitin ligase Cbl-b Int. J. Endocrinol. 2013 2013 907565 907565 23762056 10.1155/2013/907565 PMC36; conditions: cited from earlier work
Source text: The amino acid sequence of Cblin pentapeptide was designed to inhibit interaction between CBLB and IRS1 proteins based on the ability of CBLB to recognize and bind to phosphorylated tyrosine. […] We previously elucidated the crystal structure of the TKB domain of CBLB complexed with C ...

[8] = rat, single p.o. 50 mg/kg BW, n = 1
[9] = rat, single p.o. 200 mg/kg BW, n = 1

- half-life ([1]; male, Sprague-Dawley, plasma, po, rat, p.o. 100 mg/kg BW, elimination half-life, n = 5): 28 min
- tmax ([1]; male, Sprague-Dawley, plasma, po, rat, p.o. 100 mg/kg BW, n = 5, read-out: tmax (converted)): 15 min
- Metabolites found in rat plasma ([1]; p.o. 100 mg/kg BW, plasma 30 min after administration, screened by m/z): Gly-Tyr-Met-Pro and Met-Pro
- Cmax ([1]; rat, p.o. 100 mg/kg BW, fasted 16 h, LC–TOF/MS with isotope-labelled internal standard, means ± SEM (n = 5)): 2.78 ± 0.17 pmol/mL plasma
- AUC0–60 min [1, 8]: 14.61 pmol ∙ min/mL plasma
- Cmax [1, 8]: 0.79 pmol/mL plasma
- t1/2 [1, 8]: 8.99 min
- tmax [1, 8]: 10 min
- AUC0–60 min [1, 9]: 648.91 pmol ∙ min/mL plasma
- Cmax [1, 9]: 27.25 pmol/mL plasma
- t1/2 [1, 9]: 5.58 min
- tmax [1, 9]: 30 min
- Papp A→B at 60 min, 1 mM [2]: 0.7 ± 0.08 ×10⁻⁶ cm/s
- Effect of Gly-Sar (PEPT1 substrate) on Papp [3]: not affected
- Papp in monolayers incubated with cytochalasin D vs untreated membranes [3]: significantly higher
- Resistance to peptidase degradation in Caco-2 cells [4]: resistant to peptidase degradation
Molecule: CSCC[C@H](NC(=O)[C@H](Cc1ccc(O)cc1)NC(=O)CNC(=O)[C@@H](N)CC(=O)O)C(=O)N1CCC[C@H]1C(=O)O [Asp-Gly-Tyr-Met-Pro] (H-DGYMP-OH)

Molecule: Gly-Sar-Sar-Sar-Sar [pentapeptide transport model with methylated peptide bonds]
- Papp [5]: 8.6 ± 0.6^a,* ×10^−7 cm/s
- Papp, as given in text [5]: 8.6 ×10^−7 cm/s

- Uptake of intact heptapeptide into serum [6]: undetectable
Molecule: CSCC[C@H](NC(=O)[C@H](Cc1ccc(O)cc1)NC(=O)CNC(=O)[C@H](CC(=O)O)NC(=O)[C@@H](N)CCC(N)=O)C(=O)N1CCC[C@H]1C(=O)N[C@@H](Cc1c[nH]c2ccccc12)C(=O)O [Gln-Asp-Gly-Tyr-Met-Pro-Trp] (H-QDGYMPW-OH)

Molecule: CSCC[C@H](NC(=O)[C@H](Cc1ccc(OP(=O)(O)O)cc1)NC(=O)CNC(=O)[C@@H](N)CC(=O)O)C(=O)N1CCC[C@H]1C(=O)O [Asp-Gly-pTyr-Met-Pro] (H-DG[pY]MP-OH)
- Papp A→B at 60 min, 1 mM [2]: 0.35 ± 0.12 ×10⁻⁶ cm/s
- Effect of Gly-Sar (PEPT1 substrate) on Papp [3]: not affected
- Papp in monolayers incubated with cytochalasin D vs untreated membranes [3]: significantly higher
- Resistance to peptidase degradation in Caco-2 cells [4]: resistant to peptidase degradation
- Dephosphorylation during Caco-2 transport ([4]; basolateral solution after 60 min, Asp-Gly-Tyr-Met-Pro found at an estimated concentration similar to the intact peptide): dephosphorylated

Molecule: Gly-[pY]-Met
- Effect on CBLB-mediated ubiquitination of IRS1 ([7]; in vitro): suppressive effect

Molecule: Asp-Ile-Tyr-Asn-Pro [modified Cblin peptide (Cblin-like peptide from soy glycinin) with non-phosphorylated tyrosine]
- Effect on CBLB-mediated IRS1 ubiquitination [7]: suppresses
